Reference: patent publication US8816089B2, “Methods for controlling SR protein phosphorylation, and antiviral agents whose active ingredients comprise agents that control SR protein activity” (priority 2003, dated 2014)
Peptide text beside a SMILES is read from it. * marks the point of attachment. Cbz = O=C(OCc1ccccc1)*

Key:
[1] = system: SRPK1 or SRPK2; assay: Inhibition of SRPK1 or SRPK2 phosphorylation activity by SRPIN-1 analogs (FIG. 5A); type: biochemical; conditions: 10 μM in DMSO, 30° C., 20 minutes
Procedure: FIG. 5A: Evaluation of the SRPK-inhibiting activities of SRPIN-1 and analogs thereof.
The same procedure as described in Example 4B was used to determine whether SRPIN-1 analogs had the activity of inhibiting the phosphorylation activity of SRPK1 and SRPK2. Each SRPIN-1 analog (10 μM; in DMSO) was incubated with 1 μg of purified recombinant SRPK1 or SRPK2 protein, which was expressed in E. coli, in a reaction buffer (400 μM HEPES (pH 7.5), 100 μM MgCl2, 200 μM ATP, […] [γ-^32P] ATP, and 1 mg/ml RS peptide (SEQ ID NO: 5)) in a 30° C. water bath for 20 minutes.
After RS peptide was incubated with SRPK1 or SRPK2 for 20 minutes, the reaction solution was dropped onto P81 phosphocellulose membrane (P81; Whatman) and the membrane was washed three times for ten minutes with 5% phosphoric acid solution. After washing, ^32P radioactivity on the P81 membrane was determined using a liquid scintillation counter.

[2] = system: HIV; assay: HIV infection experiment in MT-4 cells, HIVp24 by Lumipulse ELISA; conditions: MT-4 cells, 5, 10, or 20 μM, supernatant after 48 hours
[3] = system: Cytomegalovirus; conditions: HFL1 cells, 20 or 40 μM, seven days after infection
[4] = system: SARS virus (FFM-1); type: cell-based; conditions: Vero cells, 40 μM, 48 hours
[5] = system: Chinese hamster CHL cells; assay: Chromosomal screening test for mutagenicity in mammalian cells; conditions: positive control, 500 μg/ml, short treatment, +S9 mix
[6] = system: SRp75, SRp55, and SRp40; assay: Degradation of HA-tagged SR proteins in Flp-In-293 cells, Western blot; type: cell-based, human; conditions: 10 μM, ten hours
Procedure: FIG. 1B: Degradation of SR protein. Plasmids for the SRp75, SRp55, and SRp40 genes were fused with HA tag and introduced into Flp-In-293 cells. MG132 (474790; purchased from CALBIOCHEM) was added to the cells at a final concentration of 10 μM. The cells were lysed and heat-denatured. The resulting protein sample was separated by SDS-PAGE, followed by Western analysis using a rabbit anti-HA antibody as the primary antibody and a donkey anti-rabbit IgG antibody as the secondary antibody.
Using Genejuice, 1 μg each of the plasmids for the SRp75, SRp55, and SRp40 genes fused with HA tag (HA-SRp75, HA-SRp55, and HA-SRp40; gifts from Dr. Woan-Yuh TARN), were introduced into Flp-In-293 cells derived from human fetal kidney. After 36 hours, MG132 (474790; purchased from Calbiochem), a ubiquitin proteasome inhibitor, was added at a final concentration of 10 μM. After ten hours, the cells were lysed with SDS-PAGE sample buffer and heat-denatured. The resulting lysate was used as a protein sample. Using the same procedures as described above, the sample was fractionated by SDS-PAGE, and analyzed by Western blotting using a rabbit anti-HA antibody (H1803; purchased from Santa Cruz) as a primary antibody and a donkey anti-rabbit IgG antibody (NA9340; purchased from Amersham) as a secondary antibody.

| SMILES | inhibitory effect on the phosphorylation activity of SRPK1 and/or SRPK2 [1] | effect in suppressing HIV replication (HIVp24) [2] | further results |
| --- | --- | --- | --- |
| O=C(Nc1cc(C(F)(F)F)ccc1N1CCc2ccccc2C1)c1ccncc1 [compound 621, N-[2-(1,2,3,4-tetrahydroisoquinolin-2-yl)-5-(trifluoromethyl)phenyl]isonicotinamide] | strong inhibitory effect | – | – |
| O=C(NC(=S)Nc1ccc(I)cc1Cl)c1cccnc1 [compound 623] | – | strong effects in suppressing HIV propagation | – |
| Cc1ccc(S(=O)(=O)Nc2cc(C(F)(F)F)ccc2N2CCCCC2)cc1 [compound 622, N-[2-(1-piperidinyl)-5-(trifluoromethyl)phenyl]-p-toluenesulfonamide] | – | strong effects in suppressing HIV propagation | – |
| O=C(Nc1ccccc1N1CCCCC1)c1ccncc1 [Compound No. 349, N-[2-(1-piperidinyl)phenyl]isonicotinamide] | – | – | morphological changes and cell death caused by cytomegalovirus infection [3]: suppressed the abnormal morphological changes and cell death caused by cytomegalovirus infection; SARS virus propagation (plaque assay) [4]: significantly suppressed SARS virus propagation |
| O=C(Nc1cc(Cl)ccc1N1CCCCC1)c1ccncc1 [compound 341, N-[5-chloro-2-(1-piperidinyl)phenyl]isonicotinamide] | – | strong effects in suppressing HIV propagation | – |
| O=C(Nc1cc(C(F)(F)F)ccc1N1CCCCCC1)c1ccncc1 [compound 618, N-[2-(1-hexahydro-1H-azepinyl)-5-(trifluoromethyl)phenyl]isonicotinamide] | strong inhibitory effect | strong effects in suppressing HIV propagation | – |
| O=C(NC(=S)Nc1cc(C(F)(F)F)ccc1N1CCCCC1)c1cccnc1 [compound 624, 1-nicotinoyl-3-[2-(1-piperidinyl)-5-(trifluoromethyl)phenyl]thiourea] | strong inhibitory effect | strong effects in suppressing HIV propagation | – |
| O=C(NC(=S)Nc1ccccc1)c1cccnc1 [compound 626] | – | strong effects in suppressing HIV propagation | – |
| CCN(CC)c1ccc(C(F)(F)F)cc1NC(=O)c1ccncc1 [compound 347, N-[2-diethylamino-5-(trifluoromethyl)phenyl]isonicotinamide] | – | strong effects in suppressing HIV propagation | – |
| O=C(Nc1cc(C(F)(F)F)ccc1N1CCCCC1)c1cccnc1 [compound 343, N-[2-(1-piperidinyl)-5-(trifluoromethyl)phenyl]nicotinamide] | – | strong effects in suppressing HIV propagation | – |
| O=C(Nc1cc(C(F)(F)F)ccc1N1CCc2ccccc21)c1ccncc1 [compound 619, N-[2-(1-indolinyl)-5-(trifluoromethyl)phenyl]isonicotinamide] | strong inhibitory effect | strong effects in suppressing HIV propagation | – |
| FC(F)(F)c1ccc(N2CCCCC2)c(NC(=S)c2ccncc2)c1 [compound 616, N-[2-(1-piperidinyl)-5-(trifluoromethyl)phenyl]isonicotinthioamide] | – | strong effects in suppressing HIV propagation | – |
| CN(C)N=O [DMN, dimethylnitrosamine, reference compound] | – | – | frequency of occurrence of cells with chromosomal abnormalities [5]: 52.0%; frequency of occurrence of cells with chromosomal abnormalities (number of cells) ([5]; 50 metaphasic cells): 26 cells |
| O=C(Nc1cc(C(F)(F)F)ccc1N1Cc2ccccc2C1)c1ccncc1 [compound 620, N-[2-(2-isoindolinyl)-5-(trifluoromethyl)phenyl]isonicotinamide] | – | strong effects in suppressing HIV propagation | – |
| O=C(Nc1cc(C(F)(F)F)ccc1Br)c1ccncc1 [compound 612, N-[2-bromo-5-(trifluoromethyl)phenyl]isonicotinamide] | strong inhibitory effect | – | – |
| O=C(Nc1cc(F)ccc1N1CCCCC1)c1ccncc1 [compound 348, N-[5-fluoro-2-(1-piperidinyl)phenyl]isonicotinamide] | – | strong effects in suppressing HIV propagation | – |
| C[C@H]1CCCCN1c1ccc(C(F)(F)F)cc1NC(=O)c1ccncc1 [compound 613, (S)—N-[2-(2-methyl-1-piperidinyl)-5-(trifluoromethyl)phenyl]isonicotinamide] | strong inhibitory effect | strong effects in suppressing HIV propagation | – |
| O=C(Nc1cccc(C(F)(F)F)c1)c1ccncc1 [compound 608, N-[3-(trifluoromethyl)phenyl]isonicotinamide] | – | strong effects in suppressing HIV propagation | – |
| CC(C)C[C@@H](C=O)NC(=O)[C@H](CC(C)C)NC(=O)[C@H](CC(C)C)NC(=O)OCc1ccccc1 [MG132] (Cbz-Leu-Leu-Leu-aldehyde) | – | – | degradation of SR proteins (anti-HA signal) [6]: inhibited degradation of SR75, SR55, and SR40 proteins |
| COc1ccc(C(=O)Nc2cc(C(F)(F)F)ccc2N2CCCCC2)cc1 [compound 615, N-[2-(1-piperidinyl)-5-(trifluoromethyl)phenyl]-4-methoxybenzamide] | strong inhibitory effect | strong effects in suppressing HIV propagation | – |
| O=C(NC(=S)Nc1cccc(C(F)(F)F)c1)c1cccnc1 [compound 625] | strong inhibitory effect | strong effects in suppressing HIV propagation | – |
| O=C(Nc1cc(C(F)(F)F)ccc1N1CCCCC1)c1ccc([N+](=O)[O-])cc1 [compound 345, N-[2-(1-piperidinyl)-5-(trifluoromethyl)phenyl]-4-nitrobenzamide] | – | strong effects in suppressing HIV propagation | – |
| Cc1ccc(N2CCCCC2)c(NC(=O)c2ccncc2)c1 [compound 342, N-[5-methyl-2-(1-piperidinyl)phenyl]isonicotinamide] | – | strong effects in suppressing HIV propagation | – |
